System: adult patients with uncontrolled gout
Assay: Serum uric acid (sUA) levels and sUA responder rate, open-label study of pegloticase with MTX (MIRROR OL)
Type: in vivo, human
Conditions: Month 6 sUA Responders
Procedure: The primary objective is to estimate the response rate during Month 6 (Weeks 20, 22, and 24), as measured by the sustained normalization of serum uric acid (SUA) to <6 mg/dL for at least 80% of the time during Month 6 in subjects receiving KXX with MTX.
The primary efficacy outcome endpoint is the sustained normalization of SUA to <6 mg/dL for at least 80% of the time during month 6 (weeks 20, 22, and 24) in subjects receiving KXX with MTX. […] Participants who achieve this endpoint were classified as “responders.” Serum uric acid (SUA) responders may also be defined as participants achieving and maintaining SUA <6 mg/dL for at least 80% of the time during Month 6 (Weeks 20, 22, and 24).
Blood samples may be collected prior to each pegloticase infusion for measurement of SUA levels using the Beckman Coulter AU System Uric Acid procedure. Participants were declared “non-responders” if there were SUA measures >6 mg/dL at 2 consecutive study visits beginning with the week 2 visit. […] This assumption and subsequent discontinuation of pegloticase was consistent with the protocol of large phase III randomized controlled trials and the product label. A formal stopping rule was 2 occasions of SUA levels of greater than 6 mg/dL.
Clinical Chemistry—Blood samples were collected prior to each pegloticase infusion for measurement of SUA levels (primary efficacy parameter) using the Beckman Coulter AU System Uric Acid procedure. In this procedure uric acid is converted to hydrogen peroxide. Hydrogen peroxide reacts with reagent to produce a chromophore which is read bichromatically at 660/800 nm. The amount of dye formed is proportional to the uric acid concentration in the sample.
Serum samples for measurement of SUA levels were collected at the Screening Visit, the Week −4 Visit (prior to the first dose of MTX), and the Week −2 Visit during the MTX Run-in Period; within 48 hours prior to each pegloticase infusion and after the end of each pegloticase infusion prior to discharge from the site during the Pegloticase+IMM Period; at the non-infusion Week 52/End of Study/Early Termination Visits and at the Post Treatment 3 and 6 Month Follow-up Visits. Additional serum samples for SUA levels were collected at optional non-infusion (Frequent Sampling) Visits at Weeks 1 and 7. […] Subjects with SUA level >6 mg/dL at 2 consecutive visits beginning at Week 2 visit discontinued treatment, completed the End of Pegloticase Infusion Visit procedures within 2 weeks and continued the subject visits according to the protocol (without treatment).
Efficacy analyses were performed using the modified intention-to-treat (mITT) population, defined as all enrolled subjects who received ≥1 dose of pegloticase. The proportion of Month 6 responders was summarized, along with a 95% confidence interval for the proportion. The proportion of Month 3 and overall (Months 3 and 6 combined) responders was analyzed similarly.
A subject was declared a non-responder if the subject had SUA level >6 mg/dL at 2 consecutive study visits beginning with the Week 2 Visit. In addition, a subject who withdraws from study treatment for any reason after the first dose of pegloticase in the KXX+MTX Period and prior to Month 6 (for the primary endpoint) or Month 3 (for the secondary endpoint) was considered a non-responder if SUA values were not collected at the planned time points.
Patients were administered oral MTX (15 mg/week) and folate (1 mg/day) 4 weeks prior to the first pegloticase infusion (Day 1) and throughout the pegloticase treatment period. Blood was drawn prior to each infusion to measure sUA level, monitor clinical parameters, and examine for ADA development. All patients followed typical IR prophylaxis protocols (fexofenadine one day before and the morning of each infusion and acetaminophen and IV corticosteroid the morning of each infusion).

pegloticase
-8.60 mg/dL: Serum Uric Acid, Change from Baseline, Median (Week 36-Pre-Infusion, n=9) | Serum Uric Acid, Change from Baseline, Median (Week 38-Pre-Infusion, n=5)
-7.95 mg/dL: Serum Uric Acid, Change from Baseline, Median (Week 34-Pre-Infusion, n=10)
3 (100%): sUA <6 mg/dL, n (%) (Week 40-Pre-Infusion, n=3) | sUA <6 mg/dL, n (%) (Week 42-Pre-Infusion, n=3) | sUA <6 mg/dL, n (%) (Week 44-Pre-Infusion, n=3)
-12.65 mg/dL: Serum Uric Acid, Change from Baseline, Median (Week 46-Pre-Infusion, n=2)
2 (100%): sUA <6 mg/dL, n (%) (Week 46-Pre-Infusion, n=2)
1.05 (1.305) mg/dL: Serum Uric Acid, Observed, Mean (SD) (Week 44-Pre-Infusion, n=3)
−9.18 (4.135) mg/dL: Serum Uric Acid, Change from Baseline, Mean (SD) (Week 24-Post-Infusion, n=5)
-9.30 mg/dL: Serum Uric Acid, Change from Baseline, Median (Week 24-Post-Infusion, n=5)
−9.11 (3.293) mg/dL: Serum Uric Acid, Change from Baseline, Mean (SD) (Week 26-Pre-Infusion, n=8) | Serum Uric Acid, Change from Baseline, Mean (SD) (Week 28-Pre-Infusion, n=8) | Serum Uric Acid, Change from Baseline, Mean (SD) (Week 30-Pre-Infusion, n=8) | Serum Uric Acid, Change from Baseline, Mean (SD) (Week 32-Post-Infusion, n=8) | Serum Uric Acid, Change from Baseline, Mean (SD) (Week 34-Post-Infusion, n=8)
8 (100%): sUA <6 mg/dL, n (%) (Week 26-Pre-Infusion, n=8) | sUA <6 mg/dL, n (%) (Week 28-Pre-Infusion, n=8) | sUA <6 mg/dL, n (%) (Week 30-Pre-Infusion, n=8) | sUA <6 mg/dL, n (%) (Week 32-Post-Infusion, n=8) | sUA <6 mg/dL, n (%) (Week 34-Post-Infusion, n=8)
−8.99 (2.961) mg/dL: Serum Uric Acid, Change from Baseline, Mean (SD) (Week 32-Pre-Infusion, n=10)
-8.95 mg/dL: Serum Uric Acid, Change from Baseline, Median (Week 26-Pre-Infusion, n=8) | Serum Uric Acid, Change from Baseline, Median (Week 28-Pre-Infusion, n=8) | Serum Uric Acid, Change from Baseline, Median (Week 30-Pre-Infusion, n=8) | Serum Uric Acid, Change from Baseline, Median (Week 32-Post-Infusion, n=8) | Serum Uric Acid, Change from Baseline, Median (Week 32-Pre-Infusion, n=10) | Serum Uric Acid, Change from Baseline, Median (Week 34-Post-Infusion, n=8)
0.82 (1.046) mg/dL: Serum Uric Acid, Observed, Mean (SD) (Week 34-Pre-Infusion, n=10)
1.58 (2.425) mg/dL: Serum Uric Acid, Observed, Mean (SD) (Week 36-Pre-Infusion, n=9)
10 (100%): sUA <6 mg/dL, n (%) (Week 14-Post-Infusion, n=10) | sUA <6 mg/dL, n (%) (Week 32-Pre-Infusion, n=10) | sUA <6 mg/dL, n (%) (Week 34-Pre-Infusion, n=10)
−10.55 (4.625) mg/dL: Serum Uric Acid, Change from Baseline, Mean (SD) (Week 44-Pre-Infusion, n=3)
11 (100%): sUA <6 mg/dL, n (%) (Week 14-Pre-Infusion, n=11) | sUA <6 mg/dL, n (%) (Week 16-Post-Infusion, n=11) | sUA <6 mg/dL, n (%) (Week 16-Pre-Infusion, n=11) | sUA <6 mg/dL, n (%) (Week 18-Post-Infusion, n=11) | sUA <6 mg/dL, n (%) (Week 18-Pre-Infusion, n=11) | sUA <6 mg/dL, n (%) (Week 20-Post-Infusion, n=11) | sUA <6 mg/dL, n (%) (Week 20-Pre-Infusion, n=11) | sUA <6 mg/dL, n (%) (Week 22-Post-Infusion, n=11) | sUA <6 mg/dL, n (%) (Week 24-Pre-Infusion, n=11)
−8.41 (5.229) mg/dL: Serum Uric Acid, Change from Baseline, Mean (SD) (Week 38-Pre-Infusion, n=5)
-8.80 mg/dL: Serum Uric Acid, Change from Baseline, Median (Week 14-Pre-Infusion, n=11) | Serum Uric Acid, Change from Baseline, Median (Week 16-Post-Infusion, n=11) | Serum Uric Acid, Change from Baseline, Median (Week 16-Pre-Infusion, n=11) | Serum Uric Acid, Change from Baseline, Median (Week 18-Post-Infusion, n=11) | Serum Uric Acid, Change from Baseline, Median (Week 18-Pre-Infusion, n=11) | Serum Uric Acid, Change from Baseline, Median (Week 20-Post-Infusion, n=11) | Serum Uric Acid, Change from Baseline, Median (Week 20-Pre-Infusion, n=11) | Serum Uric Acid, Change from Baseline, Median (Week 22-Post-Infusion, n=11) | Serum Uric Acid, Change from Baseline, Median (Week 22-Pre-Infusion, n=11) | Serum Uric Acid, Change from Baseline, Median (Week 24-Pre-Infusion, n=11)
6 (100%): sUA <6 mg/dL, n (%) (Week 36-Post-Infusion, n=6)
0.30 (0.000) mg/dL: Serum Uric Acid, Observed, Mean (SD) (Week 14-Pre-Infusion, n=11) | Serum Uric Acid, Observed, Mean (SD) (Week 16-Post-Infusion, n=11) | Serum Uric Acid, Observed, Mean (SD) (Week 16-Pre-Infusion, n=11) | Serum Uric Acid, Observed, Mean (SD) (Week 18-Post-Infusion, n=11) | Serum Uric Acid, Observed, Mean (SD) (Week 18-Pre-Infusion, n=11) | Serum Uric Acid, Observed, Mean (SD) (Week 20-Post-Infusion, n=11) | Serum Uric Acid, Observed, Mean (SD) (Week 20-Pre-Infusion, n=11) | Serum Uric Acid, Observed, Mean (SD) (Week 22-Pre-Infusion, n=11) | Serum Uric Acid, Observed, Mean (SD) (Week 24-Post-Infusion, n=5) | Serum Uric Acid, Observed, Mean (SD) (Week 24-Pre-Infusion, n=11) | Serum Uric Acid, Observed, Mean (SD) (Week 26-Pre-Infusion, n=8) | Serum Uric Acid, Observed, Mean (SD) (Week 28-Pre-Infusion, n=8) | Serum Uric Acid, Observed, Mean (SD) (Week 30-Pre-Infusion, n=8) | Serum Uric Acid, Observed, Mean (SD) (Week 32-Post-Infusion, n=8) | Serum Uric Acid, Observed, Mean (SD) (Week 32-Pre-Infusion, n=10) | Serum Uric Acid, Observed, Mean (SD) (Week 34-Post-Infusion, n=8) | Serum Uric Acid, Observed, Mean (SD) (Week 36-Post-Infusion, n=6) | Serum Uric Acid, Observed, Mean (SD) (Week 40-Pre-Infusion, n=3) | Serum Uric Acid, Observed, Mean (SD) (Week 42-Pre-Infusion, n=3) | Serum Uric Acid, Observed, Mean (SD) (Week 46-Pre-Infusion, n=2)
5 (100%): sUA <6 mg/dL, n (%) (Week 24-Post-Infusion, n=5) | sUA <6 mg/dL, n (%) (Week 38-Pre-Infusion, n=5)
11(100%): sUA <6 mg/dL, n (%) (Week 22-Pre-Infusion, n=11)
−11.30 (3.686) mg/dL: Serum Uric Acid, Change from Baseline, Mean (SD) (Week 40-Pre-Infusion, n=3) | Serum Uric Acid, Change from Baseline, Mean (SD) (Week 42-Pre-Infusion, n=3)
8 ( 88.9%): sUA <6 mg/dL, n (%) (Week 36-Pre-Infusion, n=9)
0.93 (1.583) mg/dL: Serum Uric Acid, Observed, Mean (SD) (Week 38-Pre-Infusion, n=5)
−8.97 (2.810) mg/dL: Serum Uric Acid, Change from Baseline, Mean (SD) (Week 14-Pre-Infusion, n=11) | Serum Uric Acid, Change from Baseline, Mean (SD) (Week 16-Post-Infusion, n=11) | Serum Uric Acid, Change from Baseline, Mean (SD) (Week 16-Pre-Infusion, n=11) | Serum Uric Acid, Change from Baseline, Mean (SD) (Week 18-Post-Infusion, n=11) | Serum Uric Acid, Change from Baseline, Mean (SD) (Week 18-Pre-Infusion, n=11) | Serum Uric Acid, Change from Baseline, Mean (SD) (Week 20-Post-Infusion, n=11) | Serum Uric Acid, Change from Baseline, Mean (SD) (Week 20-Pre-Infusion, n=11) | Serum Uric Acid, Change from Baseline, Mean (SD) (Week 22-Pre-Infusion, n=11) | Serum Uric Acid, Change from Baseline, Mean (SD) (Week 24-Pre-Infusion, n=11)
-9.80 mg/dL: Serum Uric Acid, Change from Baseline, Median (Week 40-Pre-Infusion, n=3) | Serum Uric Acid, Change from Baseline, Median (Week 42-Pre-Infusion, n=3) | Serum Uric Acid, Change from Baseline, Median (Week 44-Pre-Infusion, n=3)
0.30 mg/dL: Serum Uric Acid, Observed, Median (Week 14-Post-Infusion, n=10) | Serum Uric Acid, Observed, Median (Week 14-Pre-Infusion, n=11) | Serum Uric Acid, Observed, Median (Week 16-Post-Infusion, n=11) | Serum Uric Acid, Observed, Median (Week 16-Pre-Infusion, n=11) | Serum Uric Acid, Observed, Median (Week 18-Post-Infusion, n=11) | Serum Uric Acid, Observed, Median (Week 18-Pre-Infusion, n=11) | Serum Uric Acid, Observed, Median (Week 20-Post-Infusion, n=11) | Serum Uric Acid, Observed, Median (Week 20-Pre-Infusion, n=11) | Serum Uric Acid, Observed, Median (Week 22-Post-Infusion, n=11) | Serum Uric Acid, Observed, Median (Week 22-Pre-Infusion, n=11) | Serum Uric Acid, Observed, Median (Week 24-Post-Infusion, n=5) | Serum Uric Acid, Observed, Median (Week 24-Pre-Infusion, n=11) | Serum Uric Acid, Observed, Median (Week 26-Pre-Infusion, n=8) | Serum Uric Acid, Observed, Median (Week 28-Pre-Infusion, n=8) | Serum Uric Acid, Observed, Median (Week 30-Pre-Infusion, n=8) | Serum Uric Acid, Observed, Median (Week 32-Post-Infusion, n=8) | Serum Uric Acid, Observed, Median (Week 32-Pre-Infusion, n=10) | Serum Uric Acid, Observed, Median (Week 34-Post-Infusion, n=8) | Serum Uric Acid, Observed, Median (Week 34-Pre-Infusion, n=10) | Serum Uric Acid, Observed, Median (Week 36-Post-Infusion, n=6) | Serum Uric Acid, Observed, Median (Week 36-Pre-Infusion, n=9) | Serum Uric Acid, Observed, Median (Week 38-Pre-Infusion, n=5) | Serum Uric Acid, Observed, Median (Week 40-Pre-Infusion, n=3) | Serum Uric Acid, Observed, Median (Week 42-Pre-Infusion, n=3) | Serum Uric Acid, Observed, Median (Week 44-Pre-Infusion, n=3) | Serum Uric Acid, Observed, Median (Week 46-Pre-Infusion, n=2)
−8.47 (3.248) mg/dL: Serum Uric Acid, Change from Baseline, Mean (SD) (Week 34-Pre-Infusion, n=10)
−9.38 (3.799) mg/dL: Serum Uric Acid, Change from Baseline, Mean (SD) (Week 36-Post-Infusion, n=6)
−7.90 (4.094) mg/dL: Serum Uric Acid, Change from Baseline, Mean (SD) (Week 36-Pre-Infusion, n=9)
-9.20 mg/dL: Serum Uric Acid, Change from Baseline, Median (Week 36-Post-Infusion, n=6)
−12.65 (4.031) mg/dL: Serum Uric Acid, Change from Baseline, Mean (SD) (Week 46-Pre-Infusion, n=2)

Source: patent US20220409620A1, “REDUCING IMMUNOGENICITY TO PEGLOTICASE” (Horizon Pharma Rheumatology LLC, priority 2016, published 2022)
